Assay results reported in patent publication US20240165244A1 (Prelude Therapeutics Incorporated, priority 2022, published 2024).

Key:
SMARCA2 = target: T1, SMARCA2 (Homo sapiens, UniProt P51531); test: SMARCA2 HiBiT degradation assay in HeLa cells; assay type: cell-based; settings: 18 hours, highest concentration 10 μM
T1 construct: SMARCA2-HiBiT knock-in Hela monoclonal cell (CS302366); host or cells: HeLa monoclonal cells with heterozygous HiBiT knock-in at the endogenous SMARCA2 locus
How it was run: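 HeLa cells carrying a heterozygous C-terminal HiBiT knock-in on SMARCA2 were seeded at 2500 cells/well. They were treated with 3-fold dilution series, top concentration 10 μM, for 18 h at 37 °C. Remaining SMARCA2-HiBiT was measured by Nano-Glo HiBiT lytic luminescence after 30-60 min at RT, followed by curve fitting.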

SMARCA4 = target: T2, SMARCA4 (Homo sapiens, UniProt P51532); test: SMARCA4 HiBiT degradation assay in HeLa cells; assay type: cell-based; settings: 18 hours, highest concentration 10 μM
T2 construct: SMARCA4-HiBiT knock-in Hela monoclonal cell (CS3023226); host or cells: HeLa monoclonal cells with heterozygous HiBiT knock-in at the endogenous SMARCA4 locus
T2 sequence (P51532 whole entry): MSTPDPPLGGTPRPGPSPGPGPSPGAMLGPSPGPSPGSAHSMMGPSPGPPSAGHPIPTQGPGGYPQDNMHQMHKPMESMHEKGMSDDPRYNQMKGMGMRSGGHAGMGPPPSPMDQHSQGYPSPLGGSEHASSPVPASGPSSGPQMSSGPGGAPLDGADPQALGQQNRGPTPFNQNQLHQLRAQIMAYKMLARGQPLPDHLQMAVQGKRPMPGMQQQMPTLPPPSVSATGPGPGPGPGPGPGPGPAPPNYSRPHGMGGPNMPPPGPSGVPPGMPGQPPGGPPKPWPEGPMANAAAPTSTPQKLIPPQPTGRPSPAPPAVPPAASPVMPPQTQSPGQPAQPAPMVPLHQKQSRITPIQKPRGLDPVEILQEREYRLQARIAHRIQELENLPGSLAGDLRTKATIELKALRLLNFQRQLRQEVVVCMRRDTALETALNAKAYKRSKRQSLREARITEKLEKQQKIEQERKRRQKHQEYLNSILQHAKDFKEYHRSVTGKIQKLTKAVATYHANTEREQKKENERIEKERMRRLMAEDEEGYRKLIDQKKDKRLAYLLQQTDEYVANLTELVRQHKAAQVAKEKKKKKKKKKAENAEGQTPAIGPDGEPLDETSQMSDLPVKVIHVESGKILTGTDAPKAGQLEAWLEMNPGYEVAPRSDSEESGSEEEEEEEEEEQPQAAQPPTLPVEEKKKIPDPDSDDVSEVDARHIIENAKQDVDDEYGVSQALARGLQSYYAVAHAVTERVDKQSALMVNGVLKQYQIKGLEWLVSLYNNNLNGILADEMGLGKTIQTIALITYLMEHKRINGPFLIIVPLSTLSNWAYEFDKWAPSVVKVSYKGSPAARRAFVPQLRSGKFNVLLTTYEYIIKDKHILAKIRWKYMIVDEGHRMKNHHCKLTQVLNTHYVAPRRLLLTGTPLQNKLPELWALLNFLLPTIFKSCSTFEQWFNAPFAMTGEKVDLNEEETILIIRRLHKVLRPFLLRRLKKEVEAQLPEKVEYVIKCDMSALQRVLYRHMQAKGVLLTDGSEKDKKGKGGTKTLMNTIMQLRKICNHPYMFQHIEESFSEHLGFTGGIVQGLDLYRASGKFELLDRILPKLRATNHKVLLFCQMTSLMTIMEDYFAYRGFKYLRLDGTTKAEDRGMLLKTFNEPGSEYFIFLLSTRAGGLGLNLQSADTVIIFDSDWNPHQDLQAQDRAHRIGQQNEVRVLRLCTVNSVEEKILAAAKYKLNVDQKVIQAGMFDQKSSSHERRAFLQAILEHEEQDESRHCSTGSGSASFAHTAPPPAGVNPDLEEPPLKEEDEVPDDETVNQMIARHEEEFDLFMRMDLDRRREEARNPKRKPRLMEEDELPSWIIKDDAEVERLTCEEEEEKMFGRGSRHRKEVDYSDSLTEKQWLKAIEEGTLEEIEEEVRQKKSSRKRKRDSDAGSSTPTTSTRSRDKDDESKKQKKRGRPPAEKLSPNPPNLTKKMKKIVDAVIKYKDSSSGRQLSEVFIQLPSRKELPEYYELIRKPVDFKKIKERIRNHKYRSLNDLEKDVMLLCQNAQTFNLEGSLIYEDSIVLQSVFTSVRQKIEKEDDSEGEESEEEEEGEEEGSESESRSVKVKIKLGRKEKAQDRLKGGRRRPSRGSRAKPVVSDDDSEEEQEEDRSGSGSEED
How it was run: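 HeLa monoclonal cells with HiBiT knocked into SMARCA4 were seeded at 2500 cells/well, dosed with compound and incubated 18 hours at 37° C. HiBiT signal reported remaining SMARCA4 protein, and values came from curve fitting.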

T1 sequence (P51531 whole entry): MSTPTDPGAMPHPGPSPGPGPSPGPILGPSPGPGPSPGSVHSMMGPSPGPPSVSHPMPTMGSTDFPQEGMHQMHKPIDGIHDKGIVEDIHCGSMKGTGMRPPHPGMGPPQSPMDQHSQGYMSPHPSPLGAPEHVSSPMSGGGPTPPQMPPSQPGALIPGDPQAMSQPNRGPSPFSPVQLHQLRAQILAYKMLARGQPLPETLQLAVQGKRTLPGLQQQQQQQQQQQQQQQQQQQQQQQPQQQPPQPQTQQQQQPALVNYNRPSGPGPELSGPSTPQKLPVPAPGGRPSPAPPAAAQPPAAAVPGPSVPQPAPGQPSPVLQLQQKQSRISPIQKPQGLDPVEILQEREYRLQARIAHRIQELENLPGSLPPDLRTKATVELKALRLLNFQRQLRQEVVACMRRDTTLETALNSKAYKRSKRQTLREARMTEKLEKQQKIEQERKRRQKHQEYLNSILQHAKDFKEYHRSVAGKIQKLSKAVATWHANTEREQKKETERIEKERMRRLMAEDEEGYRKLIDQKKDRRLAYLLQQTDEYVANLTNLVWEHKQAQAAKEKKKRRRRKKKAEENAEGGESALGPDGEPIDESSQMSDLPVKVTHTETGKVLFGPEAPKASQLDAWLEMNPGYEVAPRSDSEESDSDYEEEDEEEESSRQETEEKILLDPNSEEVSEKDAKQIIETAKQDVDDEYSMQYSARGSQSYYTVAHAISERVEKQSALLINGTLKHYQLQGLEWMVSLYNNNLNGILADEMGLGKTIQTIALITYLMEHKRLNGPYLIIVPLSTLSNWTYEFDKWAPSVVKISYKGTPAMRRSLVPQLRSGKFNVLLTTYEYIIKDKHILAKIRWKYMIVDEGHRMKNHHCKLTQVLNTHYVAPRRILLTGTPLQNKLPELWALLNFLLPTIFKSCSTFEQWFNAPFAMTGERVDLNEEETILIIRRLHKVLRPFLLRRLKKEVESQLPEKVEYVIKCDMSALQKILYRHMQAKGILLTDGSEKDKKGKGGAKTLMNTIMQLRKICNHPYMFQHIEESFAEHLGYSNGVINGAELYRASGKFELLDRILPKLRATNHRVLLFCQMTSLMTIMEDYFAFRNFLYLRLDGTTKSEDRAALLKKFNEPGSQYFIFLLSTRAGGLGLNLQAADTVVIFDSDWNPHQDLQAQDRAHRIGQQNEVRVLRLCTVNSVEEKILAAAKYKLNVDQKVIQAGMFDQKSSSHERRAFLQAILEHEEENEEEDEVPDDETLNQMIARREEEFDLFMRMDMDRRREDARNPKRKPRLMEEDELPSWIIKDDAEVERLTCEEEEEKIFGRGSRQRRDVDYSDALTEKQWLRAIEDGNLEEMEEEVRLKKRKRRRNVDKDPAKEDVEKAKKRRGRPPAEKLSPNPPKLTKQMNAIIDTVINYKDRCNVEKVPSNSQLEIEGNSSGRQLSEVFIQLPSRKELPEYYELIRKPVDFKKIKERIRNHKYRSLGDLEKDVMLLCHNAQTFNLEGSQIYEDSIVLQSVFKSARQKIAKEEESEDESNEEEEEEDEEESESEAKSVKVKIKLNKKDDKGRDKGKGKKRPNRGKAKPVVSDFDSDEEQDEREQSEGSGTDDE

| DC50 (SMARCA2) | Dmax (SMARCA2) | DC50 (SMARCA4) | Dmax (SMARCA4) | SMILES |
| --- | --- | --- | --- | --- |
| < 100 nM | > 75% | < 100 nM | 50 to 75% | Cc1cc(O[C@H]2CN3c4cc(-c5cccc(F)c5O)nnc4NC[C@]3(C)C2)cnc1CN1CCN(c2ccc3c(c2)C(=O)N([C@H]2CCC(=O)NC2=O)C3)CC1 [Example 82, (S)-3-(6-(4-((5-(((6aS,8R)-2-(3-fluoro-2-hydroxyphenyl)-6a-methyl-5,6,6a,7,8,9-hexahydropyrrolo[1′,2′:4,5]pyrazino[2,3-c]pyridazin-8-yl)oxy)-3-methylpyridin-2-yl)methyl)piperazin-1-yl)-1-oxoisoindolin-2-yl)piperidine-2,6-dione] |
| < 100 nM | > 75% | < 100 nM | > 75% | Cc1cc(CN2CCN(c3ccc4c(c3)C(=O)N([C@H]3CCC(=O)NC3=O)C4)CC2)cnc1O[C@H]1CN2c3cc(-c4cccc(F)c4O)nnc3NC[C@]2(C)C1 [Example 83, (S)-3-(6-(4-((6-(((6aS,8R)-2-(3-fluoro-2-hydroxyphenyl)-6a-methyl-5,6,6a,7,8,9-hexahydropyrrolo[1′,2′:4,5]pyrazino[2,3-c]pyridazin-8-yl)oxy)-5-methylpyridin-3-yl)methyl)piperazin-1-yl)-1-oxoisoindolin-2-yl)piperidine-2,6-dione] |
| < 100 nM | > 75% | 100 to 1000 nM | < 50% | O=C1CCC(N2Cc3ccc(N4CCN(Cc5cnc(O[C@H]6CN7c8cc(-c9cccc(F)c9O)nnc8NC[C@@]7(C(F)F)C6)c(F)c5)CC4)cc3C2=O)C(=O)N1 (stereo partly drawn) [Example 84, 3-(6-(4-((6-(((6aR,8R)-6a-(difluoromethyl)-2-(3-fluoro-2-hydroxyphenyl)-5,6,6a,7,8,9-hexahydropyrrolo[1′,2′:4,5]pyrazino[2,3-c]pyridazin-8-yl)oxy)-5-fluoropyridin-3-yl)methyl)piperazin-1-yl)-1-oxoisoindolin-2-yl)piperidine-2,6-dione] |
| < 100 nM | > 75% | < 100 nM | 50 to 75% | O=C1CCC(N2Cc3ccc(N4CCN(Cc5cnc(O[C@H]6CN7c8cc(-c9cccc(F)c9O)nnc8NC[C@@]7(C(F)F)C6)c(Cl)c5)CC4)cc3C2=O)C(=O)N1 (stereo partly drawn) [Example 85, 3-(6-(4-((5-chloro-6-(((6aR,8R)-6a-(difluoromethyl)-2-(3-fluoro-2-hydroxyphenyl)-5,6,6a,7,8,9-hexahydropyrrolo[1′,2′:4,5]pyrazino[2,3-c]pyridazin-8-yl)oxy)pyridin-3-yl)methyl)piperazin-1-yl)-1-oxoisoindolin-2-yl)piperidine-2,6-dione] |
| < 100 nM | > 75% | 100 to 1000 nM | < 50% | Cc1c(CN2CCN(c3ccc4c(c3)C(=O)N([C@H]3CCC(=O)NC3=O)C4)CC2)cnc(O[C@H]2CN3c4cc(-c5cccc(F)c5O)nnc4NC[C@@]3(C(F)F)C2)c1C [Example 86, (S)-3-(6-(4-((6-(((6aR,8R)-6a-(difluoromethyl)-2-(3-fluoro-2-hydroxyphenyl)-5,6,6a,7,8,9-hexahydropyrrolo[1′,2′:4,5]pyrazino[2,3-c]pyridazin-8-yl)oxy)-4,5-dimethylpyridin-3-yl)methyl)piperazin-1-yl)-1-oxoisoindolin-2-yl)piperidine-2,6-dione] |
| < 100 nM | > 75% | 100 to 1000 nM | < 50% | Cc1cc(CN2CCN(c3ccc4c(c3)C(=O)N([C@H]3CCC(=O)NC3=O)C4)CC2)c(C)nc1O[C@H]1CN2c3cc(-c4cccc(F)c4O)nnc3NC[C@@]2(C(F)F)C1 [Example 87, (S)-3-(6-(4-((6-(((6aR,8R)-6a-(difluoromethyl)-2-(3-fluoro-2-hydroxyphenyl)-5,6,6a,7,8,9-hexahydropyrrolo[1′,2′:4,5]pyrazino[2,3-c]pyridazin-8-yl)oxy)-2,5-dimethylpyridin-3-yl)methyl)piperazin-1-yl)-1-oxoisoindolin-2-yl)piperidine-2,6-dione] |
| < 100 nM | > 75% | 100 to 1000 nM | < 50% | O=C1CCC(N2Cc3ccc(C4CCN(Cc5cnc(O[C@H]6CN7c8cc(-c9cccc(F)c9O)nnc8NC[C@@]7(C(F)F)C6)c(F)c5)CC4)cc3C2=O)C(=O)N1 (stereo partly drawn) [Example 88, 3-(6-(1-((6-(((6aR,8R)-6a-(difluoromethyl)-2-(3-fluoro-2-hydroxyphenyl)-5,6,6a,7,8,9-hexahydropyrrolo[1′,2′:4,5]pyrazino[2,3-c]pyridazin-8-yl)oxy)-5-fluoropyridin-3-yl)methyl)piperidin-4-yl)-1-oxoisoindolin-2-yl)piperidine-2,6-dione] |
| < 100 nM | > 75% | < 100 nM | > 75% | Cc1c(CN2CCC(c3ccc4c(c3)C(=O)N([C@H]3CCC(=O)NC3=O)C4)CC2)cnc(O[C@H]2CN3c4cc(-c5cccc(F)c5O)nnc4NC[C@]3(C(F)F)C2)c1F [Example 89, (S)-3-(6-(1-((6-(((6aS,8R)-6a-(difluoromethyl)-2-(3-fluoro-2-hydroxyphenyl)-5,6,6a,7,8,9-hexahydropyrrolo[1′,2′:4,5]pyrazino[2,3-c]pyridazine-8-yl)oxy)-5-fluoro-4-methylpyridin-3-yl)methyl)piperidin-4-yl)-1-oxoisoindolin-2-yl)piperidine-2,6-dione] |
| < 100 nM | > 75% | > 1000 nM | < 50% | O=C1CC[C@H](N2Cc3ccc(C4CCN(Cc5ccc(O[C@H]6CN7c8cc(-c9cccc(F)c9O)nnc8NC[C@@]7(C(F)F)C6)nc5)CC4)cc3C2=O)C(=O)N1 [Example 90, (S)-3-(6-(1-((6-(((6aR,8R)-6a-(difluoromethyl)-2-(3-fluoro-2-hydroxyphenyl)-5,6,6a,7,8,9-hexahydropyrrolo[1′,2′:4,5]pyrazino[2,3-c]pyridazin-8-yl)oxy)pyridin-3-yl)methyl)piperidin-4-yl)-1-oxoisoindolin-2-yl)piperidine-2,6-dione] |
| < 100 nM | > 75% | < 100 nM | 50 to 75% | Cc1nc(CN2CCC(c3ccc4c(c3)C(=O)N([C@H]3CCC(=O)NC3=O)C4)CC2)cnc1O[C@H]1CN2c3cc(-c4cccc(F)c4O)nnc3NC[C@]2(C(F)F)C1 [Example 91, (S)-3-(6-(1-((5-(((6aS,8R)-6a-(difluoromethyl)-2-(3-fluoro-2-hydroxyphenyl)-5,6,6a,7,8,9-hexahydropyrrolo[1′,2′:4,5]pyrazino[2,3-c]pyridazin-8-yl)oxy)-6-methylpyrazin-2-yl)methyl)piperidin-4-yl)-1-oxoisoindolin-2-yl)piperidine-2,6-dione] |
| < 100 nM | > 75% | < 100 nM | 50 to 75% | Cc1cc(CN2CCC(c3ccc4c(c3)C(=O)N([C@H]3CCC(=O)NC3=O)C4)CC2)ncc1O[C@H]1CN2c3cc(-c4cccc(F)c4O)nnc3NC[C@]2(C(F)F)C1 [Example 92, (S)-3-(6-(1-((5-(((6aS,8R)-6a-(difluoromethyl)-2-(3-fluoro-2-hydroxyphenyl)-5,6,6a,7,8,9-hexahydropyrrolo[1′,2′:4,5]pyrazino[2,3-c]pyridazin-8-yl)oxy)-4-methylpyridin-2-yl)methyl)piperidin-4-yl)-1-oxoisoindolin-2-yl)piperidine-2,6-dione] |
